From patent publication US7368572B2, “Acetylene derivatives as inhibitors of histone deacetylase” (Pharmacyclics, Inc., priority 2003, dated 2008)
pKi: −log10 of the molar value. Counter-ions that a name gives are not always drawn.

Biological target: HDAC-1 (Homo sapiens, UniProt Q13547)
Experiment: Inhibition of HDAC in vitro (fluorogenic acetyl-Gly-Ala-(N-acetyl-Lys)-AMC / trypsin assay)
Format: biochemical
Details: HDAC-1 200 pM, 30 min preincubation, pH 7.4; inhibition constants obtained with BatchKi
Method: The HDAC inhibitory activity of the compounds of this invention in vitro was determined as follows.
Measurements were performed in a reaction volume of 100 μL using 96-well assay plates. HDAC-1 (200 pM final concentration) in reaction buffer (50 mM HEPES, 100 mM KCl, 0.001% Tween-20, 5% DMSO, pH 7.4) was mixed with inhibitor at various concentrations and allowed to incubate for 30 min, after which trypsin and acetyl-Gly-Ala-(N-acetyl-Lys)-AMC were added to final concentrations of 50 nM and 25 μM, respectively, to initiate the reaction. Negative control reactions were performed in the absence of inhibitor in replicates of eight.
The reactions were monitored in a fluorescence plate reader. After a 30 min lag time, the fluorescence was measured over a 30 min time frame using an excitation wavelength of 355 nm and a detection wavelength of 460 nm. The increase in fluorescence with time was used as the measure of the reaction rate. Inhibition constants were obtained using the program BatchKi (Kuzmic et al. Anal. Biochem. 286, 45-50, (2000)).

Chain of HDAC-1 (Q13547 whole entry, species assumed): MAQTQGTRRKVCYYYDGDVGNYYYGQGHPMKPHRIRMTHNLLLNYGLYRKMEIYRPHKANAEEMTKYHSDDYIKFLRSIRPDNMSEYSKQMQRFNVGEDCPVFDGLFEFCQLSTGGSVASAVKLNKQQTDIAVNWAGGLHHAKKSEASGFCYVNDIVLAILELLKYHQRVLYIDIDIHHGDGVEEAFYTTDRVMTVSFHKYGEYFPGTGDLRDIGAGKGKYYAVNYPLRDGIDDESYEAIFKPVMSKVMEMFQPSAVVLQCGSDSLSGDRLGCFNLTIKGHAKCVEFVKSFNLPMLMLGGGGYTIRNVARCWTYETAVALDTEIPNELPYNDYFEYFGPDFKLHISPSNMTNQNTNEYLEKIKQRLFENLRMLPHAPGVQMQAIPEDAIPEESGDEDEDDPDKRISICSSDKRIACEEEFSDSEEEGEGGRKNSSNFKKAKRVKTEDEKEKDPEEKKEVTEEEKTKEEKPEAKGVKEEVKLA

In the case of `CN(C)Cc1c(C(=O)NCC#Cc2ccc(C(=O)NO)cc2)oc2ccccc12` [Compound 22, Table I, N-hydroxy-4-[3-(3-N,N-dimethylaminomethylbenzofiuran-2-ylcarbonylamino)prop-1-ynyl]-benzamide hydrochloride], the pKi was 7.66.
